Results published in patent US20210322395A1, “METHOD TO PREVENT AND TREAT HEARING LOSS BY CALCIUM CHANNEL BLOCKERS, ANGIOTENSIN CONVERTING ENZYME INHIBITORS, AND ANGIOTENSIN RECEPTOR BLOCKERS” (priority 2018, published 2021).

Legend:
hearing loss [1] = assay: Treatment of hearing loss in a patient, one ear treated, other ear untreated; type: in vivo, human
Description: A patient is diagnosed with hearing loss of the same magnitude in both ears. A composition comprising the calcium channel blocker nifedipine is directly applied to the external ear space of one ear while the other ear is left untreated. […] A patient is diagnosed with hearing loss of the same magnitude in both ears. A composition comprising the ACE inhibitor enalapril is directly applied to the external ear space of one ear while the other ear is left untreated. […] A patient is diagnosed with hearing loss of the same magnitude in both ears. A composition comprising the angiotensin receptor blocker losartan is directly applied to the external ear space of one ear while the other ear is left untreated. […] A patient is diagnosed with hearing loss of the same magnitude in both ears. A composition comprising the calcium channel blocker nifedipine is administered by injection into the middle ear space of one ear while the other ear is left untreated. […] A patient is diagnosed with hearing loss of the same magnitude in both ears. A composition comprising the ACE inhibitor enalapril is administered by injection into the middle ear space of one ear while the other ear is left untreated. […] A patient is diagnosed with hearing loss of the same magnitude in both ears. A composition comprising the angiotensin receptor blocker losartan is administered by injection into the middle ear space of one ear while the other ear is left untreated. […] A patient is diagnosed with hearing loss of the same magnitude in both ears. A composition comprising the calcium channel blocker nifedipine is administered by injection into the inner ear space of one ear while the other ear is left untreated. […] A patient is diagnosed with hearing loss of the same magnitude in both ears. A composition comprising the ACE inhibitor enalapril is administered by injection into the inner ear space of one ear while the other ear is left untreated. […] A patient is diagnosed with hearing loss of the same magnitude in both ears. A composition comprising the angiotensin receptor blocker losartan is administered by injection into the inner ear space of one ear while the other ear is left untreated.

hearing loss [2] = assay: Prevention of recurrence of hearing loss in a successfully treated patient, one ear treated, other ear untreated; type: in vivo, human; settings: patient after successful treatment, untreated side again exhibits symptoms
Description: A composition comprising the calcium channel blocker nifedipine is directly applied to the external ear space of one ear while the other ear is left untreated. […] A composition comprising the ACE inhibitor enalapril is directly applied to the external ear space of one ear while the other ear is left untreated. […] A composition comprising the angiotensin receptor blocker losartan is directly applied to the external ear space of one ear while the other ear is left untreated. […] A composition comprising the calcium channel blocker nifedipine is administered by injection into the middle ear space of one ear while the other ear is left untreated. […] A composition comprising the ACE inhibitor enalapril is administered by injection into the middle ear space of one ear while the other ear is left untreated. […] A composition comprising the angiotensin receptor blocker losartan is administered by injection into the middle ear space of one ear while the other ear is left untreated. […] A composition comprising the calcium channel blocker nifedipine is administered by injection into the inner ear space of one ear while the other ear is left untreated. […] A composition comprising the ACE inhibitor enalapril is administered by injection into the inner ear space of one ear while the other ear is left untreated. […] A composition comprising the angiotensin receptor blocker losartan is administered by injection into the inner ear space of one ear while the other ear is left untreated.

[3] = composition directly applied to the external ear space of one ear
[4] = composition injected into the inner ear space of one ear
[5] = composition injected into the middle ear space of one ear

| Compound | hearing loss of treated ear compared to untreated ear (hearing loss [1]; [3]) | hearing loss of treated ear compared to untreated ear (hearing loss [1]; [4]) | hearing loss of treated ear compared to untreated ear (hearing loss [1]; [5]) | level of hearing of treated ear after a period of time (recurrence of hearing loss) (hearing loss [2]; [3]) | level of hearing of treated ear after a period of time (recurrence of hearing loss) (hearing loss [2]; [4]) | level of hearing of treated ear after a period of time (recurrence of hearing loss) (hearing loss [2]; [5]) |
| --- | --- | --- | --- | --- | --- | --- |
| CCCCc1nc(Cl)c(CO)n1Cc1ccc(-c2ccccc2-c2nn[nH]n2)cc1 [losartan] | reduced hearing loss | reduced hearing loss | reduced hearing loss | maintained the level of hearing | maintained the level of hearing | maintained the level of hearing |
| CCOC(=O)[C@H](CCc1ccccc1)N[C@@H](C)C(=O)N1CCC[C@H]1C(=O)O [enalapril] | reduced hearing loss | reduced hearing loss | reduced hearing loss | maintained the level of hearing | maintained the level of hearing | maintained the level of hearing |
